According to patent EP1482955B1, “PROPHYLACTIC AND THERAPEUTIC TREATMENT OF […] OTHER DISEASES WITH IMMU[…]” (CORIXA CORPORATION, priority 2002, dated 2003):

Key:
Influenza A/HK/68 = experiment: Protection against lethal influenza challenge by prophylactic intranasal administration; assay type: in vivo; details: BALB/c mice; for protection when compared with the vehicle control: 20 µg intranasally 48 hours prior to challenge (5 LD50), judged by survival, clinical symptoms and prevention of weight loss for 21 days; for survival rate: 20 µg intranasally 48 hours prior to lethal intranasal challenge (5 LD50), followed 21 days
Method: This example provides experiments evaluating protection against a lethal challenge with influenza in cyclic AGP-treated mice. BALB/c mice (10 mice per group) were treated intranasally with 20 µg of the compounds of examples 1, 2 and 3, or with MPL, 48 hours prior to an lethal intranasal challenge of Influenza A/HK/68 (5 LD50). Protection was judged by survival, observations of clinical symptoms (ruffled fur, hunched posture and labored breathing), and prevention of weight loss for 21 days following the challenge.

[1] = tested on: L. monocytogenes 10403 serotype; experiment: Murine Listeria monocytogenes challenge model (induction of non-specific resistance); assay type: in vivo; details: mice, 1 µg intravenously in 0.2% TEOA two days before intravenous challenge with ~10^5 L. monocytogenes; spleen CFUs two days after challenge
Method: This example provides experiments evaluating the induction of non-specific resistance in the murine Listeria monocytogenes challenge model performed using the compounds prepared in examples 1, 2 and 3. Mice (5 per group) were treated intravenously with the 1 µg of a cyclic AGP or MPL solublized in 0.2% triethanolamine (TEOA). Two days later the mice were challenged intravenously with a ~10^5 L. monocytogenes 10403 serotype (stock culture provided by Jory Baldridge, Washington State University, Pullman, WA.). Two days after the challenge the mice were sacrificed and the number of colony forming units (CFUs) in the spleens of individual mice were determined by plating 10-fold serial dilutions of splenic homogenates on tryptic soy agar plates. The degree of protection afforded by a given AGP or MPL was calculated by subtracting the average number of bacteria per spleen (log10 value) in the group of mice treated with a given compound, from the average number of bacteria per spleen (log10 value) in a control group that was "sham" treated with vehicle (0.2% TEOA) prior to challenge with L. monocytogenes.

CCCCCCCCCCCC(=O)O[C@H](CCCCCCCCCCC)CC(=O)N[C@H]1[C@H](OC[C@@H]2CCCN2C(=O)C[C@@H](CCCCCCCCCCC)OC(=O)CCCCCCCCCCC)O[C@H](CO)[C@@H](OP(=O)(O)O)[C@@H]1OC(=O)C[C@@H](CCCCCCCCCCC)OC(=O)CCCCCCCCCCC.CCN(CC)CC [Example 2, N-[(R)-3-Dodecanoyloxytetradecanoyl]-(S)-2-pyrrolidinylmethyl 2-Deoxy-4-O-phosphono-2-[(R)-3-dodecanoyloxy-tetradecanoylamino]-3-O-[(R)-3-dodecanoyloxytetradecanoyl]-β-D-glucopyranoside Triethylammonium Salt]
protection when compared with the vehicle control (Influenza A/HK/68): enhanced protection | survival rate (Influenza A/HK/68): 40% | protection (average number of bacteria per spleen, log10 value, vehicle control group minus treated group) [1]: 0.7 log 10 units

CCCCCCCCCCC[C@H](CC(=O)N[C@H]1[C@H](OC[C@@H]2CCCN2C(=O)C[C@@H](CCCCCCCCCCC)OC(=O)CCCCCCCCC)O[C@H](CO)[C@@H](OP(=O)(O)O)[C@@H]1OC(=O)C[C@@H](CCCCCCCCCCC)OC(=O)CCCCCCCCC)OC(=O)CCCCCCCCC.CCN(CC)CC [Example 3, N-[(R)-3-Decanoyloxytetradecanoyl]-(S)-2-pyrrolidinylmethyl 2-Deoxy-4-O-phosphono-2-[(R)-3-Decanoyloxytetradecanoylamino]-3-O-[(R)-3-Decanoyloxytetradecanoyl]-β-D-glucopyranoside Triethylammonium Salt]
protection when compared with the vehicle control (Influenza A/HK/68): enhanced protection | survival rate (Influenza A/HK/68): 60% | protection (average number of bacteria per spleen, log10 value, vehicle control group minus treated group) [1]: ~ 0.9 log 10 units

N-[(R)-3-Tetradecanoyloxytetradecanoyl]-(S)-2-pyrrolidinylmethyl 2-Deoxy-4-O-phosphono-2-[(R)-3-tetradecanoyloxytetradecanoylamino]-3-O-[(R)-3-tetradecanoyloxytetradecanoyl]-β-D-glucopyranoside Triethylammonium Salt [Example 1]
survival rate (Influenza A/HK/68): No mice | protection (average number of bacteria per spleen, log10 value, vehicle control group minus treated group) [1]: 0.2 log 10 units
